For series [1], the target named is T1, Equilibrative nucleoside transporter 1 (Homo sapiens, UniProt Q99808).
T1 sequence (Q99808 whole entry): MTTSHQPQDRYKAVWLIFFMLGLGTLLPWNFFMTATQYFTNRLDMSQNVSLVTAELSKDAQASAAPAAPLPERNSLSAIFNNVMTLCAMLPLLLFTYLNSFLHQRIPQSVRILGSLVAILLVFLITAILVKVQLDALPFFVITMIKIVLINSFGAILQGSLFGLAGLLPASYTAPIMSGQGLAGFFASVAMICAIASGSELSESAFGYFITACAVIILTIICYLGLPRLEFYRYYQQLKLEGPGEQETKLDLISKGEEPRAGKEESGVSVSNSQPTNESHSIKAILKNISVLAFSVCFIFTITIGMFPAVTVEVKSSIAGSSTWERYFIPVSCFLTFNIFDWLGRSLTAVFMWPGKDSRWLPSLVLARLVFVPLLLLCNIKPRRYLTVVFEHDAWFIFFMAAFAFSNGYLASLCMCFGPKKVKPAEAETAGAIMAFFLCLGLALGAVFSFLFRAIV
Nature of the series: Binding affinity to recombinant human ENT1 expressed in Saccharomyces cerevisiae assessed as inhibition of [3H]-uridine transport after 15 mins by scintillation counting analysis. Format: ADME.

Series [2] has as its target T2, Equilibrative nucleoside transporter 2 (Homo sapiens, UniProt Q14542).
T2 sequence (Q14542 whole entry): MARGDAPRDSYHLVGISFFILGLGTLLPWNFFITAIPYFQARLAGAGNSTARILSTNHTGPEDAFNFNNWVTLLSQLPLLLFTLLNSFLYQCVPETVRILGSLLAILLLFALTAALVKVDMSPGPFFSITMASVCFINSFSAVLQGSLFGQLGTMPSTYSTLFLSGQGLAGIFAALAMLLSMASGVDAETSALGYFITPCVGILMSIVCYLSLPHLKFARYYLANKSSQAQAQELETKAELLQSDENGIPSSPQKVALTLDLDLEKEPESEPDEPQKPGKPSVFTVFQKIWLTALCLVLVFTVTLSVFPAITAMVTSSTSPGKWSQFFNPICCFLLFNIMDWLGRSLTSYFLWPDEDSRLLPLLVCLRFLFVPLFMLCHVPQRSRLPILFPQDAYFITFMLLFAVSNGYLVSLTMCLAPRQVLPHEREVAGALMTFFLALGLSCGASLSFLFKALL
Nature of the series: Binding affinity to recombinant human ENT2 expressed in Saccharomyces cerevisiae assessed as inhibition of [3H]-uridine transport after 15 mins by scintillation counting analysis. Format: ADME.

The target in series [3] is T3, Sodium/nucleoside cotransporter 2 (Homo sapiens, UniProt O43868).
T3 sequence (O43868 whole entry): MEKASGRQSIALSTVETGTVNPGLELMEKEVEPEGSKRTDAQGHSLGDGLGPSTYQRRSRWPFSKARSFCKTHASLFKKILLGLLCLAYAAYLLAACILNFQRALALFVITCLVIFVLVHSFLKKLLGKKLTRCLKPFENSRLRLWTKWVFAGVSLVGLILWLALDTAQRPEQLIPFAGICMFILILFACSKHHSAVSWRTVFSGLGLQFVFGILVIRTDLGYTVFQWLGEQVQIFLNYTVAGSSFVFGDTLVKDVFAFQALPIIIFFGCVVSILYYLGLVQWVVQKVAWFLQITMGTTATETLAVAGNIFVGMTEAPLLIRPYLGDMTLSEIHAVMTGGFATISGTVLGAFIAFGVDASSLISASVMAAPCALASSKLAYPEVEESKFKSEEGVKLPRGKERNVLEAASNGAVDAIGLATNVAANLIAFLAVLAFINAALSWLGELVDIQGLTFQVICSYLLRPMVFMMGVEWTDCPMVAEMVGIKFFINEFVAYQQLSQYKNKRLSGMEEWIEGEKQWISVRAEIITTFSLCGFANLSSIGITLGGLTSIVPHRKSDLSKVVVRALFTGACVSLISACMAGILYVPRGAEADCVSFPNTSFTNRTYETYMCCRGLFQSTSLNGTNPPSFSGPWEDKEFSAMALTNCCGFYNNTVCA
Nature of the series: Binding affinity to recombinant human CNT2 expressed in Saccharomyces cerevisiae assessed as inhibition of [3H]-uridine transport after 15 mins by scintillation counting analysis. Format: ADME.

The target in series [4] is T4, Solute carrier family 28 member 3 (Homo sapiens, UniProt Q9HAS3).
T4 sequence (Q9HAS3 whole entry): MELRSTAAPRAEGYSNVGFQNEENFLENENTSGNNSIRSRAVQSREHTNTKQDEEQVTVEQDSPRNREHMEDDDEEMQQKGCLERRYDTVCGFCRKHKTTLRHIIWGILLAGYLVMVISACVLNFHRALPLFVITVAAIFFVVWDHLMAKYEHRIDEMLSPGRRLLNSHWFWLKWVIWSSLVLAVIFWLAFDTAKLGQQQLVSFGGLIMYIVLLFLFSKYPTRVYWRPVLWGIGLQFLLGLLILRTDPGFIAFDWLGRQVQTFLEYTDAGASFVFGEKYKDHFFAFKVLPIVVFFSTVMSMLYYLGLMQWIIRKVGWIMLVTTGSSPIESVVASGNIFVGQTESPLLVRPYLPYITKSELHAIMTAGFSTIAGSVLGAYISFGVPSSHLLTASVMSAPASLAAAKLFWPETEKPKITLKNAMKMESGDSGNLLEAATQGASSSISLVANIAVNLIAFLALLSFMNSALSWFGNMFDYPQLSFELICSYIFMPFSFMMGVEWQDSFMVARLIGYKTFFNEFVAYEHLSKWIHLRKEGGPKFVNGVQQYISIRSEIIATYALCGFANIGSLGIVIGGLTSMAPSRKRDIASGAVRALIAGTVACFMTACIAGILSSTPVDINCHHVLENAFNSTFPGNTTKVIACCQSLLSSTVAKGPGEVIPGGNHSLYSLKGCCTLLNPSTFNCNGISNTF
Nature of the series: Binding affinity to recombinant human CNT3 expressed in Saccharomyces cerevisiae assessed as inhibition of [3H]-uridine transport after 5 mins by scintillation counting analysis. The class given is ADME.

For series [5], the target named is T1, Equilibrative nucleoside transporter 1. In words: Drug transport in Xenopus laevis oocytes assessed as recombinant human ENT1-mediated uptake up to 1 mM measured per 2 mins by Michaelis-Menten equation analysis. The class given is ADME, cell-based.
Series [6] is described as follows: Cmax in CD-1 mouse brain at 0.1 mg/kg, iv administered as bolus dose in absence of ENT1 inhibitor NBMPR-P. The class given is ADME, organism-based. Also noted: dose 0.1 mg/kg, route intravenous.
Series [7] relates to Brain. Nature of the series: AUC (0 to 4 hrs) in CD-1 mouse brain at 0.1 mg/kg, iv administered as bolus dose in presence of ENT1 inhibitor NBMPR-P. The class given is ADME, organism-based. On the set-up: time < 4 hr, dose 0.1 mg/kg, route intravenous. Conditions: in vivo.
Series [8] can be described thus: Elimination half life in CD-1 mouse at 0.1 mg/kg, iv administered as bolus dose in presence of ENT1 inhibitor NBMPR-P. Conditions: in vivo, read-out: beta t1/2 (converted). Format: ADME, organism-based. Also noted: dose 0.1 mg/kg, route intravenous.
Series [9] in a line: AUC (0 to infinity) in CD-1 mouse at 0.1 mg/kg, iv administered as bolus dose in presence of ENT1 inhibitor NBMPR-P. The class given is ADME, organism-based. Also noted: time infinity, dose 0.1 mg/kg, route intravenous. The conditions noted are these: plasma.

Take `OC[C@H]1O[C@@H](n2cnc3c(N[C@@H]4CCOC4)ncnc32)[C@H](O)[C@@H]1O` [TECADENOSON]: the IC50 came to 12 µM in series [1], 190 µM in series [2], 239 µM in series [3] and 200 µM in series [4]. Further, the Ki is 11 µM in series [1] (read-out: Ki(app)), 189 µM in series [2] (read-out: Ki(app)), 231 µM in series [3] (read-out: Ki(app)) and 126 µM in series [4] (read-out: Ki(app)). Moreover, the Vmax in series [5] came out at 46.7 pmol. In addition, the Cmax in [6] is 23 ng/g. The AUC in series [7] is 7 ng·h/g. The half-life in [8] is 1.1 h. The total exposure AUC(0-inf) in series [9] worked out at 50.5 ng·h/mL.

Source of the values: ChEMBL document CHEMBL3526052 (Drug Metab Dispos, 2013).
